From patent publication US20240174690A1, “ANNULATED 2-AMINO-3-CYANO THIOPHENES AND DERIVATIVES FOR THE TREATMENT OF CANCER” (BOEHRINGER INGELHEIM INTERNATIONAL GMBH, priority 2021, published 2024)
≈ marks a conversion by molar mass, not a printed value. Read-outs that look alike come from different tables or passages of the source.

How the values were obtained:
SAS cells = test: SAS CTG proliferation assay (120 h) (HNSCC, wt amplified); assay type: cell-based
In short: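 SAS cells plated at 300 per well in DMEM:F12 with 10% FCS and left overnight, then given compounds acoustically. After 120 h exposure, viability read by CellTiter-Glo as percent of DMSO control. IC50 from four-parameter non-linear regression.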

[1] = Metabolic (microsomal) stability assay, human liver microsomes (HLM); assay type: in vitro ADME; details: predicted clearance as percent of liver blood flow, 1 μM
In short: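 LC-MS/MS tracked parent disappearance at 0, 5, 15, 30 and 60 min in NADPH-initiated incubations with 1 mg/mL human microsomal protein and 1 μM compound at 37°C, pH 7.5. First-order fits gave intrinsic clearance, which was scaled up and reported as % QH. NADPH-free controls were also run.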

[2] = Plasma protein binding assay (PPB), equilibrium dialysis, 10% FCS in PBS; assay type: in vitro ADME; details: bovine, read-out: PPB 10% FCS (% fu)
In short: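 Equilibrium dialysis (5-10 kg/mol cut-off membrane) of 1-10 μmol/L test compound in 10% FCS/PBS against PBS with or without dextran, 3-5 h at 37° C. Compound in each chamber quantified by LC-MS after protein precipitation; fu calculated from Cserum and Cbuffer.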

[3] = Solubility measurement (DMSO solution method), McIlvaine buffer pH 4.5 or 6.8; assay type: physicochemical; details: aqueous buffer, kinetic from dmso stock, DMSO stock diluted to 250 μM, 24 h shaking at ambient temperature
In short: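 DMSO stock diluted into McIlvaine buffer, pH 4.5 or 6.8, to 250 µM final, shaken 24 h at ambient temperature. Precipitate removed by filtration; filtrate quantified by LC-UV against a fully dissolved reference in acetonitrile/water 1:1.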

[4] = Caco-2 assay (permeability PappAB, PappBA, efflux ratio); assay type: in vitro ADME; details: human, Caco-2, 10 μM test compound, pH 7.4; for Papp A→B at 90 min, 10 μM: apical to basolateral; for efflux ratio at 90 min, 10 μM: efflux ratio PappBA/PappAB, read-out: Caco ER
In short: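 Confluent Caco-2 monolayers on filter supports, 0.25% BSA in both donor and receiver buffer; transport measured a-b and b-a. After 25-30 min preincubation at 37 °C, samples at 0, 30, 60, 90 min quantified by HPLC/MS/MS. Papp from receiver amount per time, filter area and initial donor concentration; efflux ratio = PappBA/PappAB.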

[5] = McIlvaine buffer pH 4.5, read-out: solubility pH 4.5
[6] = McIlvaine buffer pH 6.8, read-out: solubility pH 6.8

HLM QH [1] [%] | fraction unbound [2] | solubility at 24 h [3, 5] [mg/mL] | solubility at 24 h [3, 6] [mg/mL] | Papp A→B at 90 min, 10 μM [4] [nm/s] | efflux ratio at 90 min, 10 μM [4] | Structure (SMILES) | IC50 (SAS cells) [µM]
25 | 0.38 | 0.123 (≈ 196 µM) | 0.104 (≈ 166 µM) | 20 | 11 | C[C@H](Oc1cc(-n2cnc(C(=O)N(C)C)c2)nc(-c2noc3c2CCC[C@@]32CCCc3sc(N)c(C#N)c32)n1)[C@@H]1CCCN1C [II-126] | 0.189
49 | 0.08 | > 0.14 | 0.022 (≈ 34.1 µM) | 210 | 0.8 | CO[C@H]1CCN(C)[C@@H]1[C@H](C)Oc1cc(N2CCN(C)C3(CC3)C2)nc(-c2noc3c2CCC[C@@]32CCCc3sc(N)c(C#N)c32)n1 [II-186] | 0.532
